The record followed here is patent publication US12570643B2, “3-aryloxy-3-five-membered heteroaryl propylamine compound, and crystal form and use thereof” (Shanghai Leado Pharmatech Co. Ltd., priority 2019, dated 2026).

Molecules are shown by their SMILES. pIC50: −log10 of the molar value. Counter-ions that a name gives are not always drawn.

For series [1], the system named is acetic acid writhing pain model in mice. The series is described as follows: Acetic acid writhing pain model in mice. The series is classed as in vivo, ICR mice. The settings on record: acetic acid 1 hour after administration, normal saline group 49 times. How it is done: ICR mice, male, 22-25 g, were fasted for food 2 h before administration, but can have water. All ICR mice were weighed and randomly grouped with the number of animals>10 per group. […] The mice were administered via intragastric administration according to the weight of mice. 1.5% acetic acid solution (0.1 ml/10 g) was intraperitoneally injected at 1 hour after administration, and the number of times of visceral pain in each group within 30 minutes was observed, the mice were counted once when the abdomen was concave, the trunk and hind legs were extended and the hips were elevated, and the number of times of these phenomena occurred within 30 min was finally counted.

Series [2] can be described thus: Neurocytotoxicity (CCK-8 cytotoxicity test). The settings on record: human, SH-SY5Y cells. The series is classed as cell-based. The protocol: (§1) HepG-2 and SH-SY5Y cells were prepared and placed in 10 cm dish and incubated at 37° C., 5% CO2 in a cell incubator; the cells were digested with trypsinize, resuspended and then counted. Based on a system of 100 μl/well, 8000 cells were transferred to a 96-well plate. The cells were incubated in a 37° C., 5% CO2 cell incubator for 24 hours; a gradient concentration system of compound I-1 (prepared in Example 2) was prepared, 2 times diluted, the system was 100 μl/well. The supernatant in the 96-well plate cell culture system on the first day was removed, and a fresh prepared drug concentration system was added to the corresponding culture plate wells culturing cells (set up duplicate wells). […] After completion of the culture, the supernatant was removed from the cell culture system of the 96-well plate, 100 μl of detection solution (medium containing 10% CCK-8) was add to each well, and incubated in a cell incubator at 37° C. and 5% CO2 for 1 hour, then taken it out and measured the absorbance at 450 nm with a microplate reader. Data were processed, cytotoxicity was calculated, and IC50 was calculated by GraphPad Prism. […]
(§2) A (dosing): absorbance of the well having cells, CCK-8 solution and drug solution
(§3) A (blank): absorbance of the well having medium and CCK-8 solution, without cells.
(§4) A (0 dosing): absorbance of the well having cells and CCK-8 solution, without drug solution […]

The test system of another series is SNL model in rat. The series is described as follows: SNL model in rat, mechanical hyperalgesia test. The note with it: 10 mg/kg intragastric, 1 hour after administration, hydrochloride used; control group 3.967 ± 0.775. The series is classed as in vivo, SD rats.
In a further series the test system is HepG2 cells. The series is described as follows: Hepatocyte toxicity (CCK-8 cytotoxicity test). The note with it: Homo sapiens, 72 hours, read-out: hepatotoxicity (IC50). The series is classed as cell-based. How it is done:
as §1, §2, §3, §4

Series [3] deals with hot plate induced pain model in rat. Kind of series: Hot plate induced pain model in rat. The format is in vivo, Sprague-Dawley rats. The note with it: 30 mg/kg intraperitoneal, hydrochloride used. The protocol:
Male, mature and unmated healthy Sprague-Dawley rats were selected, and the temperature of the cold/hot plate (product model: PE34, US IITC) was adjusted to a constant temperature of 53±0.1° C., and rats with painful response such as foot licking, foot shaking or slight jumping within 5-10 s were screened (abandoned those who evaded and jumped). […] The tested compound was freshly formulated on the day of administration. A 0.9% NaCl normal saline solution was prepared as a vehicle, an appropriate amount of the test compound was added to the required volume of normal saline, and the mixture was fully suspended to prepare the drug at a concentration of 1 mg/ml. […] The latency of thermal pain was measured at 0.5 h, 1 h and 2 h after drug administration. To avoid scalding the animals on the hot plate, the maximum latency was set to 30 s. The analgesic effect of each compound was evaluated using the maximum possible effect (MPE), i.e. MPE %=[(Post drug latency-baseline latency)/(30−baseline latency)]×100. Statistics of MPE % at different time points.

Series [4] has as its system formalin pain model in mice. The series is described as follows: Formalin pain model in mice. The series is classed as in vivo, C57BL/6 mice. The settings on record: for licking time (s) in phase II (10-60 min): hydrochloride used, mice, blank Vehicle 349.55 ± 43.09. From the text:
150 C57BL/6 mice (male, 9 weeks) were randomly divided into 15 groups with 10 mice for each group, and were used for the analgesic activity test of 3 compounds in the formalin pain model in mice: the compound I-1 group (compound I-1 prepared in Example 2, its hydrochloride was used in the experiment), the S-duloxetine group (its hydrochloride was used in the experiment) and the compound C1 group (compound C1 prepared in Comparative Example 1, its hydrochloride was used in the experiment), respectively. Before the start of the experiment, the mice were allowed to adapt to the experimental environment for 72 hours, during which there was no need to fast for food or water. The tested drugs were administrated by intraperitoneal injection, and the doses were as follows: • The compound I-1 group: blank Vehicle (blank normal saline control), 0.1 mg/kg, 0.5 mg/kg, 1 mg/kg, 5 mg/kg and 10 mg/kg; • The S-duloxetine group: blank Vehicle (blank normal saline control), 1 mg/kg, 5 mg/kg, 10 mg/kg and 20 mg/kg; • The Compound C1 group: blank Vehicle (blank normal saline control), 0.1 mg/kg, 0.5 mg/kg, 1 mg/kg, 5 mg/kg and 10 mg/kg.
After the administration, the mice were placed in a transparent, ventilated plexiglass cylinder, and 1 hour later, 20 μl of 4% formalin solution was injected into the left hind foot plantar of each group of mice with a micro-injector, and foot pain response in mice were recorded in real time with a miniature camera. The length of time of licking the left foot was used as an indicator of pain response, the licking time were observed and recorded during two periods of 0-10 min (phase I) and 10-60 min (phase II) respectively, for statistical analysis, and the half effective dose (ED50) of the 3 compounds were calculated: ED50 refers to the drug dose that reduces the licking time by half compared with the blank control group. The smaller the ED50 value is, the lower the effective analgesic dose of the compound is and the better its analgesic effect is.

Series [5] in a line: Hygroscopicity by dynamic moisture absorption (DVS). The series is classed as physicochemical. The settings on record: 25° C./80RH. How it is done:
Hygroscopicity was tested by dynamic moisture absorption (DVS) instrument. […] (Refer to the 2015 edition of the Chinese Pharmacopoeia (Guiding Principles for Drug Hygroscopicity Test)). • (2) Stability study of the crystal form A of the hydrochloride of the compound of formula I-1: […]

Series [6] in a line: Stability study of crystal form A (HPLC purity, XRPD crystal form). The series is classed as physicochemical. The settings on record: initial purity 100. How it is done:
About 10 mg of the crystal form A of the hydrochloride of the compound of formula I-1 was weighed and added into an HPLC vial, the bottle was sealed with a parafilm, 10 small holes were pierced in the film, and the vial was placed at 25° C./60% RH or 40° C./75% RH environment for 4 weeks, sampled in the first and fourth weeks respectively. Purity (using HPLC analysis) and crystal form (using X-ray powder diffraction analysis) of the samples were investigated.

Procedure for SNL model in rat: SD rats were taken for surgery, male, SPF grade, mass 150 g-180 g. The surgical procedure was performed aseptically. The animals were anesthetized with sodium pentobarbital (50 mg/kg, intraperitoneal injection). The surgical area of the waist of animals was shaved, and the skin was disinfected three times with iodophor and 70% ethanol. Start the operation after the skin was dry. A longitudinal incision was made in the posterior part of the sacral bone of the animal's waist with a scalpel to expose the left paravertebral muscles, and the muscle tissue was separated with a distractor to expose the vertebra. The left spinal nerves L5 and L6 were separated, ligated with 6-0 silk thread, and the wounds were sutured. After the surgery, the animals were placed on an electric blanket and injected subcutaneously with 5 mL normal saline to prevent dehydration. When the animal was completely awake (free to move), put the animal back into the cage.
After the surgery, the animals were adapted in the experimental environment for 15 minutes/day for 3 days.
After administration, mechanical hyperalgesia test was performed. The rats were placed individually in a plexiglas box with a grid at the bottom of the box to ensure that the feet of the rats can be tested. Rats would adapt for 15 minutes before the test. […] The rapid paw withdrawal of the animal during the test was recorded as a pain response. The paw withdrawal of the animal when the test fiber left the animal's skin was also recorded as a pain response. If the animal moved or walked, it will not be recorded as a pain response, the test should be repeated. […]
Mechanical hyperalgesia was expressed as the paw withdrawal threshold (PWT) in the behavioral test of rats, which was calculated according to the following equation: 50% response threshold (g)=(10(^Xf+kδ))/10,000 • Xf=the final test fiber value used in the test • K=table value • δ=Average difference
Data were collected using Excel software and analyzed using Prism 6.01 (Graph pad software, Inc.) software.

Turning to `CNCC[C@H](Oc1cccc2ccccc12)c1cccs1` [S-duloxetine], the “number of visceral pains (writhing reactions) within 30 min” value is recorded as 27 times in series [1] (10 mg/kg intragastric) and 21 times in series [1] (20 mg/kg intragastric). This compound also returned an IC50 at 72 h in series [2] of 28.6 µM. In the series with SNL model in rat, the “PWT” value amounted to 6.519 ± 2.226 g. Moreover, the pIC50 in the series with HepG2 cells is 4.48. In addition, the MPE % in series [3] (0.5 h) turned out to be 5.75 ± 5.74%; in series [3] (1 h), 7.44 ± 5.12%; in series [3] (2 h), 13.53 ± 4.99%. The “licking time (s) in phase II (10-60 min)” value in series [4] (1 mg/kg intraperitoneal) is listed as 259.97 ± 64.44 s; in series [4] (5 mg/kg intraperitoneal), 230.49 ± 41.31 s; in series [4] (10 mg/kg intraperitoneal), 162.83 ± 36.27 s; in series [4] (20 mg/kg intraperitoneal), 72.27 ± 17.29 s. Further, the ED50 in series [4] (Mus musculus, ip, intraperitoneal, phase II (10-60 min), dose that halves licking time vs blank control, read-out: analgesic potency ED50 in phase II pain) stood at 8 mg/kg.

On to `CNCC[C@@H](Oc1cccc2ccoc12)c1cccs1` [Crystal form A of the hydrochloride], for which the “weight change (hygroscopicity, DVS)” value in series [5] is “less than 0.2%”. Besides, the “Purity (area %)” value in series [6] (25° C./60% RH, 1 week) was 100 area %; in series [6] (25° C./60% RH, 4 weeks) it was 100 area %; in series [6] (40° C./75% RH, 1 week), 100 area %; in series [6] (40° C./75% RH, 4 weeks), 100 area %.
